# Experimental data published in patent publication US8507411B2, “Neoglycorandomization and digitoxin analogs” (priority 2004, dated 2013).
# Like-named read-outs stand apart in the source and are kept apart here.
# What was measured:
# HCT-116 = assay: High-throughput calcein AM cytotoxicity assay, HCT-116; assay type: cell-based, human; conditions: HCT-116 cells
# From the text: (§1) Standard errors are depicted with error bars.
# Du145 = assay: High-throughput calcein AM cytotoxicity assay, Du145; assay type: cell-based, human; conditions: Du145 cells
# From the text: as §1
# A549 = assay: High-throughput calcein AM cytotoxicity assay, A549; assay type: cell-based, human; conditions: A549 cells
# From the text: as §1
# NCI/ADR-RES = assay: cells; assay type: cell-based, human; conditions: NCI/ADR-RES cells
# From the text: (§2) In the assay, live cells were distinguished by the presence of a ubiquitous intracellular enzymatic activity which converts the non-fluorescent cell-permeable molecule calcein AM to the intensely fluorescent molecule calcein, which is retained within live cells. The IC50 value for each library member represents at least six replicates of dose-response experiments conducted over five concentrations using two-fold dilutions. […] Standard errors are depicted with error bars. Numerical values and corresponding error values can be found in Table 4. Du145: […]; MCF7: human breast carcinoma; HCT-116: human colon carcinoma, Hep3B: human liver carcinoma; SF-268: human CNS glioblastoma; SK-OV-3: human ovary adenocarcinoma; NCI-H460: human lung carcinoma; A549: human lung adenocarcinoma; NCI/ADR-RES: human breast carcinoma; NmuMG: mouse mammary normal epithelial.
# (§3) Cell Culture: All cell lines except NmuMG were maintained in RPMI 1640 medium from InVitrogen (Cat No. 11875-085) supplemented with 10% w/v fetal bovine serum (FBS) from ICN (Cat No. 2916154) and penicillin-streptomycin (PS) (100 U/mL and 100 μg/mL) from InVitrogen (Cat No. 15140-122). NmuMG cells were maintained in DMEM medium from InVitrogen (Cat No. 11965-084) supplemented with 10% w/v fetal bovine serum (FBS) from ICN (Cat No. 2916154), 10 μg/ml insulin (InVitrogen Cat No 12585-014), and penicillin-streptomycin (PS) (100 U/mL and 100 μg/mL) from InVitrogen (Cat No. 15140-122). Cells were harvested by trypsinization using 0.25% w/v trypsin and 0.1% w/v EDTA from InVitrogen (Cat No. 15-050-057) and then counted in a hemocytometer in duplicate with better than 10% agreement in field counts. Cells were plated at a cell density of 10,000-15,000 cells/well of each Corning Costar 96-well black tissue culture treated microtiter plate (Fisher Cat No. 07-200-627). Cells were grown for 1 h at 37° C., with 5% CO2 in a humidified incubator to allow cell attachment to occur before compound addition.
# (§4) Library Member Handling and Preparation for Cytotoxicity Assays: Library members were stored at −20° C. under dessicating conditions before the assay. Library member stocks (100×) were prepared in Corning Costar polypropylene 96-well V-bottom polypropylene microtiter plates (Fisher Cat No. 07-200-695). Five serial 1:2 dilutions were made with anhydrous DMSO at 100× the final concentration used in the assay.
# (§5) Library Member Addition: The library member-containing plates were diluted 1:10 with complete cell culture media. The 10× stocks (10 μL) were added to the attached cells using a Biomek FX liquid handler (Beckman-Coulter). Library member stocks (10 μL) were added to 90 μL of cells in each plate to insure full mixing of stocks with culture media using a Beckman FX liquid handler with 96-well head.
# (§6) Determination of Cytotoxicity: Cells were incubated with the library members for 72 h before fluorescence reading. Test plates were removed from the incubator and washed 1× in sterile PBS to remove serum containing calcium esterases. Calcein AM reagent (30 μL, […]) was added and the cells were incubated for 30 min at 37° C. Plates were read for emission using a fluorescein filter (excitation 485 nm, emission 535 nm).
# (§7) IC50 Calculation: For each library member, at least six dose response experiments were conducted. […] To calculate IC50, percent inhibitions were plotted as a function of log [concentration] and then fit to a four-parameter logistic model that allowed for a variable Hill slope using XLfit 4.1.
# (§8) Cytotoxicity Assays. All cell lines except NmuMG were maintained in RPMI 1640 medium supplemented with 10% w/v fetal bovine serum (FBS) and penicillin-streptomycin (PS) (100 U/mL and 100 μg/mL).
# SK-OV-3 = assay: cells; assay type: cell-based, human; conditions: SK-OV-3 cells
# From the text: as §2, §3, §4, §5, §6, §7, §8
# SF-268 = assay: cells; assay type: cell-based, human; conditions: SF-268 cells
# From the text: as §2, §3, §4, §5, §6, §7, §8
# Hep3B = assay: High-throughput calcein AM cytotoxicity assay, Hep3B; assay type: cell-based, human; conditions: Hep 3B cells
# From the text: as §1
# MCF7 = assay: High-throughput calcein AM cytotoxicity assay, MCF7; assay type: cell-based, human; conditions: MCF7 cells
# From the text: as §1
# NmuMG = assay: cells; assay type: cell-based, mouse
# From the text: as §2, §3, §4, §5, §6, §7, §8
# NCI-H460 = assay: High-throughput calcein AM cytotoxicity assay, NCI-H460; assay type: cell-based, human; conditions: NCI-H460 cells
# From the text: as §1
# [1] = NmuMG cells (mouse mammary normal epithelial control line), read-out: IC50
# [2] = NmuMG mouse mammary normal epithelial control line, read-out: IC50, NmuMG
Compound,IC50 (HCT-116; read-out: IC50),IC50 (Du145; read-out: IC50),IC50 (A549; read-out: IC50),IC50 (NCI/ADR-RES; read-out: IC50),IC50 (SK-OV-3; read-out: IC50),IC50 (SF-268; read-out: IC50),IC50 (Hep3B; read-out: IC50),IC50 (MCF7; read-out: IC50),IC50 (NmuMG; [1]),IC50 (NCI-H460; read-out: IC50),"IC50 (HCT-116; read-out: IC50, HCT-116)","IC50 (Du145; read-out: IC50, Du145)","IC50 (A549; read-out: IC50, A549)","IC50 (NCI/ADR-RES; read-out: IC50, NCI/ADR-RES)","IC50 (SK-OV-3; read-out: IC50, SK-OV-3)","IC50 (SF-268; read-out: IC50, SF-268)","IC50 (Hep3B; read-out: IC50, Hep 3B)","IC50 (MCF7; read-out: IC50, MCF7)",IC50 (NmuMG; [2]),"IC50 (NCI-H460; read-out: IC50, NCI-H460)"
"CON(C1CCC2(C)C(CCC3C2CCC2(C)C(C4=CC(=O)OC4)CCC32O)C1)C1OC(CO)C(O)C(O)C1O [39α, L-taloside]",> 25 µM,> 25 µM,> 25 µM,> 25 µM,> 25 µM,> 25 µM,> 25 µM,> 25 µM,> 25 µM,> 25 µM,,,,,,,,,,
"CON([C@H]1CC[C@@]2(C)[C@H](CC[C@@H]3[C@@H]2CC[C@]2(C)[C@@H](C4=CC(=O)OC4)CC[C@]32O)C1)[C@@H]1O[C@H](CF)[C@@H](O)[C@H](O)[C@H]1O [13β, 6-deoxy-6-fluoro-D-glucoside]",,,,,,,,,,,4.8 µM,5 µM,2 µM,1.1 µM,3.4 µM,4.7 µM,4.6 µM,6.2 µM,> 25 µM,1.4 µM
6-deoxy-6-azido-D-mannoside [41α],> 25 µM,> 25 µM,> 25 µM,> 25 µM,> 25 µM,> 25 µM,> 25 µM,> 25 µM,> 25 µM,> 25 µM,,,,,,,,,,
"CON(C1CCC2(C)C(CCC3C2CCC2(C)C(C4=CC(=O)OC4)CCC32O)C1)C1CC(C)(O)C(O)C(C)O1 [30α, L-mycaroside]",,,,,,,,,> 25 µM,,> 25 µM,> 25 µM,> 25 µM,> 25 µM,> 25 µM,> 25 µM,> 25 µM,> 25 µM,,> 25 µM
"CON(C1CCC2(C)C(CCC3C2CCC2(C)C(C4=CC(=O)OC4)CCC32O)C1)C1OC(CO)C(O)CC1O [10α, 3-deoxy-D-glucoside]",,,,,,,,,,,> 25 µM,> 25 µM,> 25 µM,> 25 µM,> 25 µM,> 25 µM,> 25 µM,> 25 µM,> 25 µM,> 25 µM
"CON([C@H]1CC[C@@]2(C)[C@H](CC[C@@H]3[C@@H]2CC[C@]2(C)[C@@H](C4=CC(=O)OC4)CC[C@]32O)C1)[C@H]1O[C@@H](CO)[C@@H](O)[C@H](O)[C@H]1O [28β, L-idoside]",,,,,,,,,,,3.2 µM,1.9 µM,1.14 µM,0.61 µM,2.4 µM,2.1 µM,1 µM,2.6 µM,1.8 µM,1.3 µM
"CON([C@H]1CC[C@@]2(C)[C@H](CC[C@@H]3[C@@H]2CC[C@]2(C)[C@@H](C4=CC(=O)OC4)CC[C@]32O)C1)[C@@H]1C[C@@](C)(O)[C@@H](O)[C@H](C)O1 [30β, L-mycaroside]",,,,,,,,,,,0.6 µM,1.1 µM,0.6 µM,0.35 µM,1.1 µM,1.1 µM,0.6 µM,1.8 µM,> 25 µM,0.19 µM
"CON(C1CCC2(C)C(CCC3C2CCC2(C)C(C4=CC(=O)OC4)CCC32O)C1)C1OC(CO)C(O)C(O)C1O [25α, D-guloside]",,,,,,,,,> 25 µM,,> 25 µM,> 25 µM,> 25 µM,> 25 µM,> 25 µM,> 25 µM,> 25 µM,> 25 µM,,> 25 µM
"CON(C1CCC2(C)C(CCC3C2CCC2(C)C(C4=CC(=O)OC4)CCC32O)C1)C1OC(CO)C(O)C(O)C1F [12α, 2-deoxy-2-fluoro-D-glucoside]",,,,,,,,,,,> 25 µM,> 25 µM,> 25 µM,> 25 µM,> 25 µM,> 25 µM,> 25 µM,> 25 µM,> 25 µM,> 25 µM
"CON([C@H]1CC[C@@]2(C)[C@H](CC[C@@H]3[C@@H]2CC[C@]2(C)[C@@H](C4=CC(=O)OC4)CC[C@]32O)C1)[C@@H]1O[C@H](CO)[C@@H](O)[C@H](O)[C@H]1F [12β, 2-deoxy-2-fluoro-D-glucoside]",,,,,,,,,,,8 µM,9 µM,3.7 µM,2.6 µM,9 µM,7 µM,8 µM,8 µM,> 25 µM,2.9 µM
"CON(C1CCC2(C)C(CCC3C2CCC2(C)C(C4=CC(=O)OC4)CCC32O)C1)C1OC(C)C(O)C(O)C1O [8α, D-fucoside]",,,,,,,,,,,> 25 µM,> 25 µM,> 25 µM,> 25 µM,> 25 µM,> 25 µM,> 25 µM,> 25 µM,> 25 µM,> 25 µM
